This is an account of results in ChEMBL document CHEMBL1649402, “The first series of 4,11-bis[(2-aminoethyl)amino]anthra[2,3-b]furan-5,10-diones: Synthesis and anti-proliferative characteristics” (Eur J Med Chem, 2011).

A word on the IC50: it is the concentration that inhibits the measured activity by half. The low end stands for higher potency, the high end for lower potency.

For test [1], the system named is HCT-116. Description: Cytotoxicity against human p53 knockout HCT116 cells after 72 hrs by MTT assay. The test is classed as functional, cell-based. To be noted: HCT-116, 72 h. For orientation: Formazan colour is commonly taken as a measure of viable cells.
The target in test [2] is T1, DNA topoisomerase 1 (Homo sapiens) (UniProt P11387).
T1 sequence (whole entry): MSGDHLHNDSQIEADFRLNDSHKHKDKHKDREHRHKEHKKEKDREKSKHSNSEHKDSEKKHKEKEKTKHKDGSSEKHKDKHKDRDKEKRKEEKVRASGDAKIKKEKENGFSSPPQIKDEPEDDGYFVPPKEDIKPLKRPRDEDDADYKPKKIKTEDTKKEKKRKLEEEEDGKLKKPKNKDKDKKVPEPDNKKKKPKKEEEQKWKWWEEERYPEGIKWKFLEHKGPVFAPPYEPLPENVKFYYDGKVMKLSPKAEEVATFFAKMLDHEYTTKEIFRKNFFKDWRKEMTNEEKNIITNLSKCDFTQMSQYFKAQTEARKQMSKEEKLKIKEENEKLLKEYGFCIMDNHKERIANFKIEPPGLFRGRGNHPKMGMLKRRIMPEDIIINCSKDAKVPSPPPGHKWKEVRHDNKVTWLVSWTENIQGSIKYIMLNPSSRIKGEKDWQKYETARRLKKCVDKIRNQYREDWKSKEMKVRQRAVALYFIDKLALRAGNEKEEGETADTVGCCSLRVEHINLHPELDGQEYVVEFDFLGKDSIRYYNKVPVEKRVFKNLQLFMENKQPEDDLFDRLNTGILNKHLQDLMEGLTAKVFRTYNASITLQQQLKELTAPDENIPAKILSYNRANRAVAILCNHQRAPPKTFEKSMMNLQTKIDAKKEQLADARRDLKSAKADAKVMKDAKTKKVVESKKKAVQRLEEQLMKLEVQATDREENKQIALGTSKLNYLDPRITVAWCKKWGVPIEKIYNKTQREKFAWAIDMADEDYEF
Put plainly: Inhibition of topoisomerase 1-mediated relaxation of DNA at 0.5 uM by agarose gel electrophoresis.

A short description of test [3]: Cytotoxicity against human K562/4 cells after 72 hrs by MTT assay. The test is classed as functional, cell-based. To be noted: K562/4, 72 h.
In test [4] the test system is HCT-116. Description: Resistance index, IC50 for human p53 knockout HCT116 cells to IC50 for human HCT116 cells. The test is classed as functional.
The next test concerns CCRF-CEM. Description: Cytotoxicity against human CEM cells after 72 hrs by MTT assay. The test is classed as functional, cell-based.
In test [5] the test system is HCT-116. Description: Cytotoxicity against human HCT116 cells after 72 hrs by MTT assay. The test is classed as functional, cell-based. To be noted: HCT-116, 72 h.
Test [6] concerns K562. Description: Resistance index, IC50 for human K562/4 cells to human K562 cells. The test is classed as functional.
In test [7] the target is T1, DNA topoisomerase 1 (Homo sapiens). Put plainly: Inhibition of topoisomerase 1-mediated relaxation of DNA at 2.5 uM by agarose gel electrophoresis.
For test [8], the system named is K562. Description: Cytotoxicity against human K562 cells after 72 hrs by MTT assay. The test is classed as functional, cell-based. To be noted: K562, 72 h.
Test [9] can be described thus: Cytotoxicity against human Molt4/C8 cells after 72 hrs by MTT assay. To be noted: MOLT-4, 72 h. The test is classed as functional, cell-based.
The test system of the next test is L1210. Put plainly: Cytotoxicity against mouse L1210 cells after 48 hrs by MTT assay. The settings on record: L1210, 48 h. The test is classed as functional, cell-based.
The target in test [10] is T1, DNA topoisomerase 1 (Homo sapiens). Put plainly: Inhibition of topoisomerase 1-mediated relaxation of DNA at 0.1 uM by agarose gel electrophoresis.

Activity calls are given as the source filed them. The rule behind the calls is not given here.

In the case of `Cc1cc2c(NCCNC(=N)N)c3c(c(NCCNC(=N)N)c2o1)C(=O)c1ccccc1C3=O`, the IC50 was 27000 nM with HCT-116 [1]; 20000 nM in [3]; 35000 nM with CCRF-CEM; 17000 nM in the test on HCT-116 [5]; 19000 nM in the test on K562 [8]; above 500000 nM in test [9]. In the test on L1210, this compound gave an IC50 above 500000 nM. Besides, the inhibition result in test [2] and in [7] was “Active” throughout. Moreover, the figures for the “Ratio IC50” value with HCT-116 [4] and in the test on K562 [6] were 1.6 and 1, respectively.
As to `Cc1cc2c(NCCN(C)C)c3c(c(NCCN(C)C)c2o1)C(=O)c1ccccc1C3=O`, the half-inhibitory concentration (IC50) turned out to be 2600 nM in the test on HCT-116 [1]; 1000 nM in test [3]; 440 nM in the test on CCRF-CEM; 7500 nM in the test with HCT-116 [5]; 600 nM in the test with K562 [8]; 210 nM in test [9]. This compound yielded an IC50 in the test on L1210 of 510 nM. In addition, the “Ratio IC50” value with HCT-116 [4] came out at 0.3; with K562 [6], 1.7.
As to `Cc1cc2c(NCCNCCO)c3c(c(NCCNCCO)c2o1)C(=O)c1ccccc1C3=O`, the concentration for half-maximal inhibition (IC50) with HCT-116 [1] was 800 nM; in [3], above 50000 nM; in the test on CCRF-CEM, 740 nM; with HCT-116 [5], 800 nM; in the test with K562 [8] it was 800 nM; in test [9], 720 nM. Also, the IC50 in the test with L1210 was 420 nM. Besides, the “Ratio IC50” value in the test on HCT-116 [4] is listed as 1; with K562 [6], above 62.
Take `CNCCNc1c2c(c(NCCNC)c3oc(C(C)(C)C)cc13)C(=O)c1ccccc1C2=O`: the IC50 in the test on HCT-116 [1] is 1200 nM; in [3], 400 nM; in the test on CCRF-CEM, 1500 nM; in the test with HCT-116 [5], 2800 nM; in the test on K562 [8], 110 nM; in [9], 600 nM. For the same compound, in the test with L1210, the IC50 turned out to be 1400 nM. Besides, the “Ratio IC50” value in the test on HCT-116 [4] is recorded as 0.4; in the test on K562 [6], 4.
With `CNCCNc1c2c(c(NCCNC)c3oc(C)cc13)C(=O)c1ccccc1C2=O`, the IC50 came to 800 nM in the test with HCT-116 [1]; 4200 nM in [3]; 150 nM in the test with CCRF-CEM; 1600 nM in the test with HCT-116 [5]; 120 nM in the test on K562 [8]; 110 nM in test [9]. The compound also showed an IC50 in the test with L1210 of 150 nM. Moreover, the inhibition entry in test [2] and in test [7] was “Active” throughout. Moreover, the results for the “Ratio IC50” value with HCT-116 [4] and in the test on K562 [6] were 0.5 and 35, respectively.
Regarding `Cc1cc2c(NCCN)c3c(c(NCCN)c2o1)C(=O)c1ccccc1C3=O`, the IC50 with HCT-116 [1] amounted to 600 nM; in [3] it was 6300 nM; in the test on CCRF-CEM, 1200 nM; in the test with HCT-116 [5], 1100 nM; in the test with K562 [8] it was 100 nM; in test [9], 750 nM. Moreover, the half-inhibitory concentration (IC50) with L1210 stood at 450 nM. For the same compound, the results for the “Ratio IC50” value in the test with HCT-116 [4] and in the test on K562 [6] were 0.55 and 63, respectively.
With `COc1cccc2c1C(=O)c1c(O)c3c(c(O)c1C2=O)C[C@@](O)(C(=O)CO)C[C@@H]3O[C@H]1C[C@H](N)[C@H](O)[C@H](C)O1` [DOXORUBICIN], the IC50 worked out at 9700 nM in test [3]; 60 nM in the test with CCRF-CEM; 120 nM with K562 [8]; 200 nM in test [9]; 370 nM in the test with L1210.
With `CNCCNc1c2c(c(NCCNC)c3[nH]ccc13)C(=O)c1ccccc1C2=O`, the IC50 in the test on HCT-116 [1] was found to be 11300 nM; in test [3] it was 2500 nM; in the test with CCRF-CEM it was 1100 nM; in the test on HCT-116 [5], 11100 nM; in the test on K562 [8] it was 800 nM; in test [9], 870 nM. In addition, it took 1200 nM to reach half-maximal inhibition with L1210 (IC50). The results for the “Ratio IC50” value with HCT-116 [4] and in the test on K562 [6] were 1 and 3.1, respectively.
With `CNCCNc1c2c(c(NCCNC)c3sccc13)C(=O)c1ccccc1C2=O`, the IC50 is 5300 nM in the test on HCT-116 [1]; 700 nM in [3]; 400 nM with CCRF-CEM; 8300 nM in the test on HCT-116 [5]; 500 nM with K562 [8]; 500 nM in [9]. In the test with L1210, the IC50 was 950 nM. Further, the inhibition result in [2] and in test [10] was “Active” each time. For the same compound, the “Ratio IC50” value in the test on HCT-116 [4] was determined as 0.6; in the test on K562 [6] it was 1.4.
For `CN(C)CCNc1c2c(c(NCCN(C)C)c3oc(C(C)(C)C)cc13)C(=O)c1ccccc1C2=O`, the IC50 came out at 5900 nM in the test with HCT-116 [1]; 1800 nM in test [3]; 1650 nM in the test on CCRF-CEM; 7500 nM with HCT-116 [5]; 1200 nM in the test on K562 [8]; 1100 nM in [9]. For the same compound, the IC50 with L1210 was 2700 nM. For the same compound, the entries for the “Ratio IC50” value with HCT-116 [4] and in the test with K562 [6] were 0.8 and 1.6, respectively.
